Measured values reported in patent publication US6335320B1, “Method of treating fibrotic conditions” (UCB S.A., priority 1998, dated 2002).
No end group written: not given here.

How the values were obtained:
[1] = system: SM cells; conditions: culture of SM cells, microinjection; cited from earlier work
[2] = system: anti-alpha SM-1; conditions: cited from earlier work
[3] = system: α-SM actin; assay: Effect on α-SM actin biosynthesis (S35 methionine incorporation) in VSMC; format: cell-based, rat; conditions: for α-SM actin synthesis, control standardised at 100%: 2 mg/ml, VSMC, 37° C.
Method: In this table, the values of the control conditions were standardised at a 100% starting value (time=0 hour).

[4] = system: splinted wound; assay: Open splinted wound contraction model in rats; format: in vivo, rat; conditions: topical
Text: Test upon an open “splinted Wound” in Rats
In order to measure exclusively contraction, the inventors have developed the “splinted wound” model, based upon the technique of Gabbiani G. et al., J. of Exp.
The wound 2×2 cm in the back of the rat is fixed by suturing its margins to a plastic frame using suture thread (Supramid, metric 3, Braun, Emmenbrücke) on day 0. […] The peptidic product is applied on the open wound starting at the 7th day usually for 3 days and releases the suture of the frame, thus allowing an accelerated contraction which in controls reduces the area of the wound of about ⅔ within 48 hours.
We have measured morphometrically the contraction of the wound (5 rats per group) by means of planimetry (KS 400, Zeiss Vision) and studied the tissues morphologically by means of histological techniques, immunofluorescence with the α-SM actin antibody according to a method described in Gabbiani et al., J. Exp. Med. 1972 (p.15, line 8) and Darby et al. Lab. Invest. 1990 (p.1, line 24-25).
Table 3 presents the wound size (surface in cm^2) measured on day 3 as a percentage of the wound size measured on day 0.
The rats were treated with the peptidic product of example 1 at a dose of 3 mg/ml (mg of peptidic product, ml of 0.9% NaCl).

## Acetyl-glutamyl-glutamyl-glutamyl-aspartyl (Ac-EEED) [AcEEED]
[1]
  incorporation of α-SM actin into stress fibers: inhibits the incorporation of α-SM actin into stress fibers

## AcEEEDSTALVC (Ac-EEEDSTALVC) [amino terminal decapeptide of α-SM actin]
[2]
  blocking effects on the binding of monoclonal antibody anti-alpha SM-1: blocking effects

## ε-(Acetyl Glu Glu Glu Asp) Lys Arg Gln Ile Lys Ile Trp Phe Gln Asn Arg Arg Met Lys Trp Lys Lys OH [example 1, ε-(AcEEED)-K-(pAntp[43-58])]
[3]; Experiment 1, 20 hours
  α-SM actin synthesis, control standardised at 100%: 72%
[3]; Experiment 2, 20 hours
  α-SM actin synthesis, control standardised at 100%: 56%
[3]; Experiment 3, 20 hours
  α-SM actin synthesis, control standardised at 100%: 44%
[3]; Experiment 4, 20 hours
  α-SM actin synthesis, control standardised at 100%: 48%
[3]; Mean of 4 experiments, 20 hours
  α-SM actin synthesis, control standardised at 100%: 55%
[3]; mean value for the 4 experiments, 2 mg/ml culture medium
  decrease of the α-SM actin synthesis compared to control conditions: 55%
[4]; 3 mg/ml
  contractile activity of the wound: decrease in contractile activity
[4]; 3 mg/ml in 0.9% NaCl, 5 rats per group
  Wound surface: wound size on day 3 as a percentage of the wound size on day 0: 48.42 ± 2.02%
